Patent US20250092058A1 (priority 2018, published 2025)
Read-outs that look alike come from different tables or passages of the source.

Experiments:
HCT116 [1] = assay: MTT assay HCT116; format: cell-based, human
Description: (§1) MTT assays. […] Each experiment was performed at least in triplicate.

T24 = assay: MTT assay T24; format: cell-based; settings: Table 5 lower part; T24 bladder cancer
Description: (§2) MTT assays. […] Viable cells (2500 cells per well) were plated in each well in 96-well plates. After an overnight incubation, cells were treated with and without relevant drugs alone and in combination, respectively, at various concentrations and incubated for 72 hours. MTT, a colorimetric substrate, was added to a final concentration of 0.4 mg/ml to each well. Cells in 96-well plates were further incubated in a 5% CO2 incubator at 37° C. for 4 hours, and then the medium was aspirated. The MTT metabolic product formazan was solubilized by adding 200 ul of DMSO to each well. Absorbance in the relevant wells was measured at 570 nm using an Ultra Microplate Reader (Bio-Tek Instruments). Each experiment was performed at least in triplicate. IC50/EC50 values were calculated from a series of drug dose ranges for each analyzed compound, using GraphPad Prism 6 (GraphPad Software, Inc., La Jolla, CA).
(§3) The inhibition of cell growth and viability in various cancer cell types were tested using MTT assay for references.

HepG2 = format: cell-based, human; settings: Table 13; MTT; HepG2 liver cancer
Top1 = Top1 (Homo sapiens, UniProt P11387); format: biochemical
Wer 127 = assay: MTT assay Wer 127; format: cell-based; settings: Table 7
Description: as §1

A549 = format: cell-based, human; settings: Table 13; MTT; A549 lung cancer
DDX5-blocked Top1 = DDX5-blocked Top1 (Homo sapiens, UniProt P17844); format: biochemical; settings: 0.05 μM; DDX5 100 nM; Top1 1 IU
Description: Experimental condition: Top1 was used for 1 IU; DDX5 was used in 100 nM; and 1 μg supercoiled pRB322 DNA was used.

Y79 = assay: MTT assay Y79; format: cell-based; settings: Table 7
Description: as §1

HT-3 = assay: MTT assay HT-3; format: cell-based, human; settings: Table 7; HT-3
Procedure, shortened: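 IC50/EC50 were fitted from dose series, each run at least in triplicate, using a colorimetric MTT readout. After overnight plating (2500 cells/well) and 72 h drug incubation, 0.4 mg/ml MTT was added for 4 h at 37° C; formazan in DMSO was read at 570 nm.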

RT4 = assay: MTT assay RT4; format: cell-based; settings: Table 5 lower part; RT4 bladder cancer
Description: as §2, §3

UMUC-3 = test system: UMUC-3
Description: as §2, §3

UOK151 = test system: UOK151
Description: as §2, §3

H1376 = test system: H1376
Description: as §2, §3

UOK262 = test system: UOK262
Description: as §2, §3

HCT116 [2] = format: cell-based, human; settings: Table 13; MTT; HCT116 colorectal cancer
HeLa = format: cell-based, human; settings: Table 13; MTT; HeLa cervical cancer

Sequence of DDX5-blocked Top1 (P17844 whole entry): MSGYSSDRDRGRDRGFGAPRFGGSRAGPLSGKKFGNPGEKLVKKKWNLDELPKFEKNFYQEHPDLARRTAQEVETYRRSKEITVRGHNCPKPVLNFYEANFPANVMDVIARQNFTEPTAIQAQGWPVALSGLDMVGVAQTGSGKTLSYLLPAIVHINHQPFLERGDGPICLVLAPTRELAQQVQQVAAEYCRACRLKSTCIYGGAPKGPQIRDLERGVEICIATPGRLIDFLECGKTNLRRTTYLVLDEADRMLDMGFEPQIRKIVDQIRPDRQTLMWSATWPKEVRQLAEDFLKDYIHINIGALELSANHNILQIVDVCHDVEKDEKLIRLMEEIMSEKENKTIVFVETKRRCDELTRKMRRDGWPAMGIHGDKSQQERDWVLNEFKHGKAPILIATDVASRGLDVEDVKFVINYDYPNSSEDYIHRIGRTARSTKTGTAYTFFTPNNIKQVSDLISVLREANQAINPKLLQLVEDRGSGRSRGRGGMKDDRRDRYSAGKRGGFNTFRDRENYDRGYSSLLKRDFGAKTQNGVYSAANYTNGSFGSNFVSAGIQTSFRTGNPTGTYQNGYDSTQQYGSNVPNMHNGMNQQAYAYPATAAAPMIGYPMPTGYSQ
Sequence of Top1 (P11387 whole entry, species assumed): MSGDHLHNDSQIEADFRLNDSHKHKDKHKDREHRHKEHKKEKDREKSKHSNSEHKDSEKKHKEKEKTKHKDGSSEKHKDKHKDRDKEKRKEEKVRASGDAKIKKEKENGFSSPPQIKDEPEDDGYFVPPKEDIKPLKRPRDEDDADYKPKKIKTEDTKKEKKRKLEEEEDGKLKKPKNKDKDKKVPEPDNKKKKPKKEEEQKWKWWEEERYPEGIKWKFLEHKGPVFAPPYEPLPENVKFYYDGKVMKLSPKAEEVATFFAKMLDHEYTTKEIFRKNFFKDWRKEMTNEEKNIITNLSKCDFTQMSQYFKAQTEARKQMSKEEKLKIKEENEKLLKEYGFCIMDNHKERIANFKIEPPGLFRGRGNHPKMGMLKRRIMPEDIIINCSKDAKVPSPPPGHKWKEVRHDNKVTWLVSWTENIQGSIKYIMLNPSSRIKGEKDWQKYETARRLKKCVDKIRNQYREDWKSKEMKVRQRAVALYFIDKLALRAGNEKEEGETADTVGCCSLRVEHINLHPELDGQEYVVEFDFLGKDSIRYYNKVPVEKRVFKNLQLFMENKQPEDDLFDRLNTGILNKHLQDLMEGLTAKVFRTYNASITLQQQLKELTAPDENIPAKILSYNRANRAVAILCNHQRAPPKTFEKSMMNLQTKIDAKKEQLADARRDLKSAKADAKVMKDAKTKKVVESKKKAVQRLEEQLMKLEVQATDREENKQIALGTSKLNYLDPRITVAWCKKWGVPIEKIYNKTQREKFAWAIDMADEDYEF

For `CCc1c2c(nc3ccc(O)cc13)-c1cc3c(c(=O)n1C2)COC(=O)[C@]3(O)CC` [SN38, reference compound], the IC50/EC50 (HCT116 [1]; Table 7) was 619.8 nM, the IC50/EC50 (HCT116 [1]; Table 8) was 619.8 nM and the IC50/EC50 (T24) was 2.32 nM. For the same compound, the IC50 (HepG2) was 268.4 ± 0.6 nM, the “concentrations blocking Top1 nicking SC DNA activity” value (Top1) was “could only be blocked by 5 and 50 μM” and the IC50/EC50 (Wer 127) was 6.85 nM. The IC50 (A549) was 475 ± 9 nM, the “unblocking of DDX5-blocked Top1 activity” value (DDX5-blocked Top1) was “cannot” and the IC50/EC50 (Y79) was 5.25 nM. For the same compound, the IC50/EC50 (HT-3) was 18 nM, the IC50/EC50 (RT4) was 17.6 nM and the IC50/EC50 (UMUC-3; Table 5 lower part, UMUC-3 bladder cancer) was 8.2 nM. For the same compound, the IC50/EC50 (UMUC-3; Table 8, UMUC-3) was 8.2 nM, the IC50/EC50 (UOK151; Table 5 lower part, UOK151 kidney cancer) was >500 nM and the IC50/EC50 (UOK151; Table 8, UOK151) was >500 nM. For the same compound, the IC50/EC50 (UOK151; Table 10, UOK151) was >500 nM, the IC50/EC50 (H1376; Table 5 lower part, H1376 bladder cancer) was >500 nM and the IC50/EC50 (H1376; Table 8, H1376) was >500 nM. For the same compound, the IC50/EC50 (UOK262; Table 5 lower part, UOK262 kidney cancer) was 33.8 nM, the IC50/EC50 (UOK262; Table 8, UOK262) was 33.8 nM and the IC50/EC50 (UOK262; Table 10, UOK262) was 33.8 nM. For the same compound, the IC50 (HCT116 [2]) was 366.9 ± 3.3 nM and the IC50 (HeLa) was 234 ± 5.2 nM.
